Tests used:
GPR30 [1] = target: T1, GPR30 (Mus musculus, UniProt Q8BMP4); assay: inositol phosphate accumulation in MCF-mGPR30 cells; calcium responses lost in Gpr30-null mural cells; assay type: cell-based
T1 construct: gene Gper1; mGPR30 stably expressed in MCF-7 cells
T1 sequence (Q8BMP4 1-375): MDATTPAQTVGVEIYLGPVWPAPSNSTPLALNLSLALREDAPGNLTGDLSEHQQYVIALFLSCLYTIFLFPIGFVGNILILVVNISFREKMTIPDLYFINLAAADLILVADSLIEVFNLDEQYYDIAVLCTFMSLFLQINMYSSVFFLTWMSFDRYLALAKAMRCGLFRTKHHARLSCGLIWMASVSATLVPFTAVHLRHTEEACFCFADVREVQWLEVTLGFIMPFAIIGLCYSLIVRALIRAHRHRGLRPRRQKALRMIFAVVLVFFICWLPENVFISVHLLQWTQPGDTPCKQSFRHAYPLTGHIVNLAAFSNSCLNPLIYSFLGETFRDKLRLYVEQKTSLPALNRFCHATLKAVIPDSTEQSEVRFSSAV

GPR30 [2] = target: T2, GPR30 (Homo sapiens, UniProt Q99527); assay: scintillation proximity assay with […]C-bicarbonate on membranes; the EC50 is from inositol phosphate accumulation in HEK293 cells; assay type: cell-based
T2 construct: gene GPER1; hGPR30-HA (C-terminal HA tag), plasma membrane fraction of HEK293 cells

GPR30 [3] = target: T3, GPR30 (Danio rerio, UniProt B3G515)
T3 construct: gene gper1

GPR30 [4] = target: T4, GPR30 (Rattus norvegicus, UniProt O08878)
T4 construct: gene Gper1
T4 sequence (O08878 whole entry): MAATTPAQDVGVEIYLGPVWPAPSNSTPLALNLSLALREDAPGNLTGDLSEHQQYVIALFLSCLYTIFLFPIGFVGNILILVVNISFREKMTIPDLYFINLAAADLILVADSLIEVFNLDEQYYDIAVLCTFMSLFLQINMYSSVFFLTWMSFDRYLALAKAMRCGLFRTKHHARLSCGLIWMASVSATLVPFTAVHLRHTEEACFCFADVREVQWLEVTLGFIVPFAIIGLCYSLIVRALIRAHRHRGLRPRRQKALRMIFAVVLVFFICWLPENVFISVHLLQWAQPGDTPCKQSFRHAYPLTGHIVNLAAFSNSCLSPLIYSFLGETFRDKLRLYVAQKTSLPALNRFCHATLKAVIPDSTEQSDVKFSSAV

T3 sequence (B3G515 whole entry): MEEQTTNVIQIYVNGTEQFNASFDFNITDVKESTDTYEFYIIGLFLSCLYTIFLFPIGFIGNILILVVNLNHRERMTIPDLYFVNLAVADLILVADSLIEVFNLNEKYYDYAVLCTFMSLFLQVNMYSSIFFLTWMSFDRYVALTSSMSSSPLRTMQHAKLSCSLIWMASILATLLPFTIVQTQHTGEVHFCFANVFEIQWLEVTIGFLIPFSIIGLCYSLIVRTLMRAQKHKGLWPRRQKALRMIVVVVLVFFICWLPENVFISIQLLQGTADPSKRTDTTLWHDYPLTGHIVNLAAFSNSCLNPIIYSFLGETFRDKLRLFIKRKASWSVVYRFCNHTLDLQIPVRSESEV
T2 sequence (Q99527 whole entry): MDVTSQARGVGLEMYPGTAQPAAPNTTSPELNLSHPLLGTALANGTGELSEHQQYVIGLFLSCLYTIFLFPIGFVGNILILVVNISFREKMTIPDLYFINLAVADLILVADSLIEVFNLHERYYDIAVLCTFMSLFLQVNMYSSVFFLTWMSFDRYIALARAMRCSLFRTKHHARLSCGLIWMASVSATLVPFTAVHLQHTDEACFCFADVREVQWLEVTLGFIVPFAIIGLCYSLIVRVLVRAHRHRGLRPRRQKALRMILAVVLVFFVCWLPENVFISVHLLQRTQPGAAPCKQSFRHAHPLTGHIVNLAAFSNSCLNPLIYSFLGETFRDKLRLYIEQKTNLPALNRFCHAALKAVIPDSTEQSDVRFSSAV

In the case of `O=C(O)O` [bicarbonate], the EC50 (GPR30 [1]) is reported as 12.2 mM, the EC50 (GPR30 [2]) is reported as 11.4 mM and the “cell-based activation assay of expressed receptor” value (GPR30 [3]) is reported as “Activation of GPR30 by bicarbonate ions was conserved among various species, including rats”. For the same compound, the “cell-based activation assay of expressed receptor” value (GPR30 [4]) was “Activation of GPR30 by bicarbonate ions was conserved among various species, including rats”.
